From patent US20210220376A1, “ADDICTION TREATMENT OF AN ALCOHOL-CONSUMING PATIENT POPULATION” (Amygdala Neurosciences, Inc., priority 2018, published 2021)

What was measured:
[1] = tested on: healthy male alcohol drinkers; test: Phase 1 study of compound (2) with ethanol: pharmacodynamics (mDEQ-5); type: in vivo, human
Description: The exploratory pharmacodynamic endpoints included maximum effect (Emax), maximum change from baseline (CFBmax), time to Emax (TEmax), and time-averaged area under the effect curve (TA_AUE), as applicable, derived from Modified 5-item Drug Effects Questionnaire (mDEQ-5) scores.
mDEQ-5 scores were summarized by timepoint and treatment using descriptive statistics. Derived endpoints (Emax, CFBmax, TEmax, TA_AUE, as applicable) were summarized by treatment using descriptive statistics. For each mDEQ-5-derived endpoint, an analysis of variance (ANOVA) was conducted to compare each of active doses to placebo with dose group as a factor. Results were presented in terms of LSMEANS, treatment differences in LSMEANS, 95% CI and p-values.
Ethanol consumption and number of EtOH doses consumed (i.e., number of drinks) during the repeat EtOH administration sessions were summarized using descriptive statistics.

[2] = Phase 1 study of compound (2) with ethanol: pharmacokinetics of compound (1) and breath alcohol; settings: after repeated EtOH administration
Description: Plasma concentrations of compound (1) and BrAC were summarized and listed by treatment, subject and timepoint. Pharmacokinetic parameters derived for compound (1) were also summarized and listed by treatment and subject. Pharmacokinetic parameters were estimated using a non-compartmental approach with a log-linear terminal phase assumption. The trapezoidal rule was used to estimate the area under the curve (linear trapezoidal linear interpolation) and the terminal phase will be estimated by maximizing the coefficient of determination estimated from the log-linear regression model. However, AUC0-∞, AUClast/∞, λz and t1/2 parameters were to be estimated for individual concentration-time profiles only when the terminal log-linear phase could be reliably characterized.
Proportionality analysis was done using a power model. The power model was defined as: […]
A linear model with ln-transformed dose as a continuous effect was fitted. A point estimate and a 90% CI was derived for the slope (β). The parameter could be considered to be dose proportional if the 90% confidence interval of the slope β was within [1+ln(0.8)/ln(r), 1+ln(1.25)/ln(r)], where r=the highest dose studied/the lowest dose (Smith et al., “Confidence interval criteria for assessment of dose proportionality.” Pharm Res. 17 (10):1278-83 (2000)).

human ALDH-2 enzyme = target: T1, human ALDH-2 enzyme (Homo sapiens, UniProt P05091); settings: read-out: IC50 ALDH-2; cited from earlier work
T1 sequence (P05091 18-517): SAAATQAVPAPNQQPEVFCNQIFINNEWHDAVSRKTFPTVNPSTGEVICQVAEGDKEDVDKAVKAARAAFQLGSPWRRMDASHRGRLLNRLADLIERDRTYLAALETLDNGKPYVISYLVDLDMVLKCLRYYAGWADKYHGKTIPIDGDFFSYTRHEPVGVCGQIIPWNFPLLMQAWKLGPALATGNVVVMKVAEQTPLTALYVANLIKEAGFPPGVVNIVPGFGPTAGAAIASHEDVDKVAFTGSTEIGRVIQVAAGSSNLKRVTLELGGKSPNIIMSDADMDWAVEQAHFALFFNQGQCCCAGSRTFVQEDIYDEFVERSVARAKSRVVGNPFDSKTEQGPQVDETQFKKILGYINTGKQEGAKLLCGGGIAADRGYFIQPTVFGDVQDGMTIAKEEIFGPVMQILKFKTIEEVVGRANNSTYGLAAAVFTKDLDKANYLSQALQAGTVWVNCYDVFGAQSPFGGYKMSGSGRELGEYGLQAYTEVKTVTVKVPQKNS

hMAO-A = target: T2, hMAO-A (Homo sapiens, UniProt P21397); settings: read-out: IC50 hMAO-A; cited from earlier work
T2 sequence (P21397 1-527): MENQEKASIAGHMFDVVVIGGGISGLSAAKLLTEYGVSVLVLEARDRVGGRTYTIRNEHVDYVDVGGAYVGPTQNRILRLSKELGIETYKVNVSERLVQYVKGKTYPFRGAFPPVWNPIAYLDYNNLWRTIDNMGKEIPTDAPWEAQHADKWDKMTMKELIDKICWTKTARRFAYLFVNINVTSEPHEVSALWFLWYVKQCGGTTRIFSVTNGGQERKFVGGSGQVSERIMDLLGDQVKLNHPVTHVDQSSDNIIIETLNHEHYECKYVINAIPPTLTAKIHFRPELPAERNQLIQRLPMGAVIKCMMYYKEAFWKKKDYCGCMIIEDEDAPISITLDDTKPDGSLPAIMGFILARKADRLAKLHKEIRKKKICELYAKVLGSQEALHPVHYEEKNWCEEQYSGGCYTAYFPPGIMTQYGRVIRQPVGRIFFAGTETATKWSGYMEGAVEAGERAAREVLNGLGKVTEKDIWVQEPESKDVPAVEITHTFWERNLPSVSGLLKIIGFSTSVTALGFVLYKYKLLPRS

hMAO-B = target: T3, hMAO-B (Homo sapiens, UniProt P27338); settings: read-out: IC50 hMAO-B; cited from earlier work
T3 sequence (P27338 1-520): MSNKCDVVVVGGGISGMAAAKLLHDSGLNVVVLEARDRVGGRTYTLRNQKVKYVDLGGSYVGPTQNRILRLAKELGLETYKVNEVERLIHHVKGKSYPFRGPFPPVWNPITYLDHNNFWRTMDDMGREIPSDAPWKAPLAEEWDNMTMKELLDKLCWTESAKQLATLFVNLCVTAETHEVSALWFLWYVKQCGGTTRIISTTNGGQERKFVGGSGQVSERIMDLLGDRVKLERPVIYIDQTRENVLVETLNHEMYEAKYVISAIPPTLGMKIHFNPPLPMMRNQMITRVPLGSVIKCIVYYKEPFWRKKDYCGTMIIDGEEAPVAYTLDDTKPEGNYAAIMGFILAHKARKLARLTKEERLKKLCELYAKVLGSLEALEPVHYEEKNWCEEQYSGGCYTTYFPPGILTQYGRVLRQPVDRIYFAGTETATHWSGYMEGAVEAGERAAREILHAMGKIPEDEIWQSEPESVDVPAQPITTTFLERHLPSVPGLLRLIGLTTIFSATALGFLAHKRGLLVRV

O=C(NCc1ccc(-c2ccn(COP(=O)(O)O)c(=O)c2)cc1)c1c(Cl)cccc1Cl [Compound (2), phosphoric acid mono-(4-{4-[(2,6-dichloro-benzoylamino)-methyl]-phenyl}-2-oxo-2H-pyridin-1-ylmethyl) ester]
dose response on pharmacodynamic measures ([1]; 25-600 mg): did not show a consistent dose response
peak VAS scores: feeling any alcohol effects, feeling drunk, liking the effects of alcohol ([1]; all dose levels vs placebo): Peak scores for placebo were higher than scores for all compound (2) dose levels
peak breath alcohol concentrations compared with placebo [2]: slightly higher
IC50 (human ALDH-2 enzyme): > 10 µM
IC50 (hMAO-A): > 130 µM
IC50 (hMAO-B): > 130 µM
